We go through 19 compounds from patent US5593970A, “Heterocyclic anthracycline analogs” (priority 1994, dated 1997).

Common to all, as to test: Microculture tetrazolium assay
What all share (type): cell-based

One experiment relates to SKVLB. The note with it: for VLB/OV3: IC50 ratio SKVLB/SKOV3; for IC50: SKVLB.
Another experiment has as its system HT29.
In the next experiment the test system is SKOV3.
The test system of the next experiment is LOX. The note with it: read-out: IC50.
The mark [1] stands for this setting: HT29, hydrochloride, read-out: IC50.
Setting [2] is: Homo sapiens, HT-29, HT29, read-out: IC50.
Setting [3] is: Homo sapiens, SK-OV-3, SKOV3, read-out: IC50.
Setting [4] is: SKOV3, hydrochloride, read-out: IC50.

Where “and” joins values, the source holds several entries; their conditions need not be identical. Identical values can stand only once. Counter-ions that a name gives are not always drawn. Like-named read-outs stand apart in the source and are kept apart here.

By IC50 is commonly meant the concentration that inhibits the measured activity by half. For the compound `CC(=O)C1Cc2c(O)c3c(c(O)c2C(O[C@H]2C[C@H](N)[C@H](O)[C@H](C)O2)O1)C(=O)c1ccccc1C3=O` (mixture of isomers) [BCH-1130, (1'S,1S,3R) and (1'S,1R,3S)-Methyl-[5,12-dihydroxy-1-(2',3',6'-trideoxy-3'-amino-4'-hydroxy-L-lyxohexopyranose)-6,11-dioxo-3,4,6,11-tetrahydroanthraceno-(2,3-C)pyran-3-yl]ketone hydrochloride], the VLB/OV3 with SKVLB (hydrochloride) is 21.87 and 19.04. Besides, the concentration for half-maximal inhibition (IC50) is 1.03 µM in the experiment on SKVLB (hydrochloride, read-out: IC50); 0.573 µM in the experiment on SKVLB (read-out: IC50); 127 nM in the experiment on HT29 (setting [1]); 170 nM in the experiment with HT29 (setting [2]).

With `CC(=O)C1Cc2c(O)c3c(c(O)c2C(O[C@H]2C[C@H](N4CCOCC4)[C@H](O)[C@H](C)O2)O1)C(=O)c1ccccc1C3=O` (mixture of isomers) [BCH-1191, (1'S,1R,3S) and (1'S,1S,3R)-Methyl(1-(2',3',6'-trideoxy-3'-morpholino-L-lyxohexopyranose)-6,11-dioxo-5,12-dihydroxy-3,4,6,11-tetrahydroanthraceno[2,3-c]pyran-3-yl)ketone], in the experiment on SKVLB, the VLB/OV3 is 3.57 and half-maximal inhibition (IC50) required 1.05 µM.

`C[C@@H]1O[C@@H](O[C@@H]2O[C@@H](C(C)(F)F)CC3=C2C(=O)c2cc4ccccc4c(O)c2C3=O)C[C@H](NC(=O)C(F)(F)F)[C@@H]1O` (mixture of isomers) [BCH-1677, (1'S,1R,3S) and (1'S,1S,3R)-5,12-dioxo-3-(1,1-difluoroethyl)-6-hydroxy-1-(2',3',6'-trideoxy-3'-trifluoroacetamido-L-lyxohexopyranose)-3,4,5,12-tetrahydroanthraceno-[2,3-c]-pyran]: the IC50 in the experiment on SKOV3 (setting [3]) turned out to be 4710 nM; with SKVLB (read-out: IC50), 7.79 µM; in the experiment with HT29 (setting [2]) it was 5440 nM; with LOX, 2480 nM. For the same compound, in the experiment with SKVLB, the VLB/OV3 is reported as 1.65.

Consider `CC(=O)C1CC2=C(C(=O)c3cc4ccccc4c(O)c3C2=O)C(O[C@H]2CC[C@H](NC(=O)C(F)(F)F)[C@H](C)O2)O1` (mixture of isomers) [BCH-1680, (1'S,1S,3R) and (1'S, 1R, 3S)-methyl-{6-hydroxy-1(2',3',4',6'-tetradeoxy-4'-trifluoroacetamido-L-lyxohexopyranose)-5,12-dioxo-3,4,5,12-tetrahydroanthraceno-[2,3-c]pyran-3-yl}ketone], for which the IC50 in the experiment with SKOV3 (setting [3]) is 2810 nM; in the experiment with SKVLB (read-out: IC50), 3.83 µM; in the experiment on HT29 (setting [2]), 2240 nM; in the experiment with LOX, 2260 nM. In addition, the VLB/OV3 in the experiment with SKVLB was 1.36.

With `C[C@@H]1O[C@@H](O[C@@H]2O[C@@H](C(=O)C(C)(C)C)CC3=C2C(=O)c2cc4ccccc4c(O)c2C3=O)C[C@H](NC(=O)C(F)(F)F)[C@@H]1O` (mixture of isomers) [BCH-2197, (1'S, 1S,3S) and (1'S,1R, 3R)-tert-butyl-(6-hydroxy-1-(2',3',6'-trideoxy-3'-trifluoroacetamido-4-hydroxy-L-lyxohexopyranose)-5,12-dioxo-3,4,5,12-tetrahydroanthraceno-[2,3-c]-pyran-3-yl)-ketone], the IC50 in the experiment on SKOV3 (setting [3]) is 2770 nM; with SKVLB (read-out: IC50) it was 3.02 µM; in the experiment on HT29 (setting [2]) it was 520 nM. For the same compound, the VLB/OV3 in the experiment on SKVLB was determined as 1.09.

Take `C[C@@H]1O[C@@H](O[C@H]2O[C@H](C(=O)C(C)(C)C)CC3=C2C(=O)c2cc4ccccc4c(O)c2C3=O)C[C@H](NC(=O)C(F)(F)F)[C@@H]1O` (mixture of isomers) [BCH-2198, (1'S, 1S,3S) and (1'S,1R, 3R)-tert-butyl-(6-hydroxy-1-(2',3',6'-trideoxy-3'-trifluoroacetamido-4-hydroxy-L-lyxohexopyranose)-5,12-dioxo-3,4,5,12-tetrahydroanthraceno-[2,3-c]-pyran-3-yl)-ketone]: the concentration for half-maximal inhibition (IC50) in the experiment on SKOV3 (setting [3]) came to 4400 nM; in the experiment on SKVLB (read-out: IC50), 4.15 µM; with HT29 (setting [2]) it was 2410 nM. Also, the VLB/OV3 in the experiment with SKVLB came out at 0.94.

Regarding `CCC1Cc2c(O)c3c(c(O)c2C(C[C@H]2C[C@H](N)[C@H](O)[C@H](C)O2)O1)C(=O)c1ccccc1C3=O` (mixture of isomers) [BCH-2817, (1'S,2'R, 3'S,5'R, 1S,3R) and (1'S,2'R, 3'S,5'R, 1R, 3S)-1-(3-amino-2-hydroxy-1-methyltetrahydropyran-5-yl)methyl-3-ethyl-5,12-dihydroxy-6,11-dioxo-3,4,6,11-tetrahydroanthraceno-[2,3-c]pyran hydrochloride], the IC50 came to 1670 nM in the experiment with SKOV3 (setting [3]), 11 µM in the experiment with SKVLB (read-out: IC50) and 3530 nM in the experiment on HT29 (setting [2]). For the same compound, the VLB/OV3 with SKVLB was 6.59.

Take `CC(=O)[C@H]1CC2=C(C(=O)c3cc4ccccc4c(O)c3C2=O)[C@H](O[C@H]2C[C@H](N)[C@H](O)[C@H](C)O2)O1` [BCH-1127]: the VLB/OV3 in the experiment on SKVLB is 1.87 and 3.24.

For the compound `CC[C@H]1CC2=C(C(=O)c3cc4ccccc4c(O)c3C2=O)[C@H](O[C@H]2C[C@H](NC(=O)C(F)(F)F)[C@H](O)[C@H](C)O2)O1` [BCH-1187, (1'S,1S,3S)-5,12-dioxo-3-ethyl-6-hydroxy-1-(2',3',6'-trideoxy-3'-trifluoroacetamido-4'-hydroxy-L-lyxohexopyranose)-3,4,5,12-tetrahydroanthraceno[2,3-c]pyran], the IC50 is 1200 nM with SKOV3 (setting [3]); 1850 nM in the experiment on SKOV3 (SKOV3, read-out: IC50); 3.86 µM and 3.88 µM with SKVLB (read-out: IC50); 1980 nM in the experiment with HT29 (HT29, read-out: IC50); 1420 nM in the experiment on HT29 (setting [2]). The VLB/OV3 with SKVLB is 3.22 and 2.10.

With `CC(=O)O[C@@H]1[C@H](C)O[C@@H](O[C@H]2S[C@H](C(C)=O)CC3=C2C(=O)c2cc4ccccc4c(O)c2C3=O)C[C@@H]1OC(C)=O` [BCH-1671], the VLB/OV3 with SKVLB was 0.82 and 1.00.

Regarding `CC(=O)[C@H]1Cc2c(O)c3c(c(O)c2[C@H](O[C@@H]2O[C@@H](C)[C@@H](O)[C@@H](O)C2I)O1)C(=O)c1ccccc1C3=O` (stereo partly shown) [BCH-1675], the IC50 with HT29 (setting [2]) was 5280 nM; in the experiment on LOX, 1180 nM.

`C[C@@H]1O[C@@H](O[C@@H]2O[C@@H](c3ccccc3)CC3=C2C(=O)c2cc4ccccc4c(O)c2C3=O)C[C@H](N)[C@@H]1O` [BCH-2013]: the results for the IC50 with SKVLB (read-out: IC50) and in the experiment with LOX were 4.64 µM and 554 nM, respectively.

Regarding `C=CC[C@H]1Cc2c(O)c3c(c(O)c2[C@H](O[C@H]2C[C@H](N)[C@H](O)[C@H](C)O2)O1)C(=O)c1ccccc1C3=O` [BCH-2106, (1'S,1S,3S)-3-(5,12-dihydroxy-1-(2',3',6'-trideoxy-3'-amino-4'-hydroxy-L-lyxohexopyranose)-6,11-dioxo-3,4,5,12-tetrahydroanthraceno-[2,3-c]pyran-3-yl)propene hydrochloride], the half-inhibitory concentration (IC50) with SKOV3 (setting [3]) stood at 148 nM.

As to `C=C(C)[C@H]1Cc2c(O)c3c(c(O)c2[C@H](O[C@H]2C[C@H](N)[C@H](O)[C@H](C)O2)O1)C(=O)c1ccccc1C3=O` [BCH-2188, (1'S,1S,3R)-5,12-dihydroxy-6,11-dioxo-3-isopropenyl-1-(2',3',6'-trideoxy-3'-amino-L-lyxohexopyranose)-3,4,5,12-tetrahydroanthraceno-[2,3-c]-pyran hydrochloride], the IC50 with SKOV3 (setting [3]) was 374 nM; in the experiment on SKOV3 (setting [4]), 640 nM; with SKVLB (hydrochloride, read-out: IC50), 0.297 µM; with SKVLB (read-out: IC50), 0.198 µM; with HT29 (setting [1]), 310 nM; in the experiment with HT29 (setting [2]), 211 nM. Further, in the experiment on SKVLB (hydrochloride), the VLB/OV3 is 0.53 and 0.46.

On to `C=C(C)[C@@H]1Cc2c(O)c3c(c(O)c2[C@@H](O[C@H]2C[C@H](N)[C@H](O)[C@H](C)O2)O1)C(=O)c1ccccc1C3=O` [BCH-2189, (1'S,1R,3S)-5,12-dihydroxy-6,11-dioxo-3-isopropenyl-1-(2',3',6'-trideoxy-3'-amino-L-lyxohexopyranose)-3,4,5,12-tetrahydroanthraceno-[2,3-c]-pyran hydrochloride], for which the half-maximal inhibitory concentration (IC50) in the experiment on SKOV3 (setting [3]) was determined as 268 nM; in the experiment on SKOV3 (setting [4]) it was 342 nM; with HT29 (setting [1]), 144 nM; in the experiment with HT29 (setting [2]), 147 nM. For the same compound, the VLB/OV3 in the experiment on SKVLB (hydrochloride) was 0.39 and 0.73.

As for `CC(C)[C@H]1Cc2c(O)c3c(c(O)c2[C@H](O[C@H]2C[C@H](N4CCOCC4)[C@H](O)[C@H](C)O2)O1)C(=O)c1ccccc1C3=O` [BCH-2190, (1'S,1S,3R)-5,12-dihydroxy-6,11-dioxo-3-isopropyl-1-(2',3',6-trideoxy-3'-(4-morpholinyl)-L-lyxohexopyranose)-3,4,5,12-tetrahydroanthraceno-[2,3-c]-pyran], the IC50 in the experiment with SKOV3 (setting [3]) worked out at 1650 nM; with SKVLB (read-out: IC50) it was 3.18 µM; in the experiment with HT29 (setting [2]) it was 3710 nM. Also, in the experiment on SKVLB, the VLB/OV3 came to 1.93.

As to `CC(C)[C@H]1Cc2c(O)c3c(c(O)c2[C@H](O[C@H]2C[C@H](N4CCOCC4)[C@H](O)[C@H](C)O2)O1)C(=O)c1ccccc1C3=O` [BCH-2192, (1'S,1S,3R)-5,12-dihydroxy-6,11-dioxo-3-isopropyl-1-(2',3',6'-trideoxy-3'(4-morpholinyl)-L-lyxohexopyranose)-3,4,5,12-tetrahydroanthraceno-[2,3-c]-pyran hydrochloride], the 50% inhibitory concentration (IC50) in the experiment on SKOV3 (setting [4]) is 1930 nM; in the experiment with SKVLB (hydrochloride, read-out: IC50), 2.28 µM; in the experiment with HT29 (setting [1]), 4650 nM. Further, the VLB/OV3 with SKVLB (hydrochloride) came to 1.18.

Turning to `CC(C)[C@H]1Cc2c(O)c3c(c(O)c2[C@H](O[C@H]2C[C@H](N4CCOCC4C#N)[C@H](O)[C@H](C)O2)O1)C(=O)c1ccccc1C3=O` (stereo partly drawn) [BCH-2195, (1'S,1S,3R)-5,12-dihydroxy-6,11-dioxo-3-isopropyl-1-(2',3',6'-trideoxy-3'(3-cyano-4-morpholinyl)-L-lyxohexopyranose)-3,4,5,12-tetrahydroanthraceno-[2,3-c]-pyran], the IC50 in the experiment on SKOV3 (Homo sapiens, SK-OV-3, SKOV3) was found to be 4550 nM; with SKVLB, 10.1 µM; with HT29 (Homo sapiens, HT-29, HT29) it was 3400 nM. Moreover, in the experiment on SKVLB, the VLB/OV3 is on record as 2.22.

Regarding `C[C@@H]1O[C@@H](O[C@@H]2O[C@@H](C(=O)OC(C)(C)C)CC3=C2C(=O)c2cc4ccccc4c(O)c2C3=O)C[C@H](NC(=O)C(F)(F)F)[C@@H]1O` [BCH-2850], the IC50 in the experiment on SKOV3 (setting [3]) worked out at 3500 nM; in the experiment with SKVLB (read-out: IC50), 5.2 µM; in the experiment on HT29 (setting [2]) it was 5100 nM. The VLB/OV3 with SKVLB is 1.49.
